Reference: ChEMBL document CHEMBL4765227, “Hit to lead optimization of a series of N-[4-(1,3-benzothiazol-2-yl)phenyl]acetamides as monoacylglycerol lipase inhibitors with potential anticancer activity” (Eur J Med Chem, 2016)

What was measured:
Type in all cases: functional
Conditions in all cases: read-out: GI
Malme-3M = test: Growth inhibition of human Malme-3M cells at 10 uM incubated for 48 hrs by sulforhodamine B assay relative to control
SNB-75 = test: Growth inhibition of human SNB-75 cells at 10 uM incubated for 48 hrs by sulforhodamine B assay relative to control
COLO 205 = test: Growth inhibition of human COLO 205 cells at 10 uM incubated for 48 hrs by sulforhodamine B assay relative to control
HCT-116 = test: Growth inhibition of human HCT-116 cells at 10 uM incubated for 48 hrs by sulforhodamine B assay relative to control
RXF 393 = test: Growth inhibition of human RXF 393 cells at 10 uM incubated for 48 hrs by sulforhodamine B assay relative to control
786-0 = test: Growth inhibition of human 786-0 cells at 10 uM incubated for 48 hrs by sulforhodamine B assay relative to control
HOP-62 = test: Growth inhibition of human HOP-62 cells at 10 uM incubated for 48 hrs by sulforhodamine B assay relative to control
HCT-15 = test: Growth inhibition of human HCT-15 cells at 10 uM incubated for 48 hrs by sulforhodamine B assay relative to control
A549 = test: Growth inhibition of human A549/ATCC cells at 10 uM incubated for 48 hrs by sulforhodamine B assay relative to control
OVCAR-3 = test: Growth inhibition of human OVCAR-3 cells at 10 uM incubated for 48 hrs by sulforhodamine B assay relative to control
LOX IMVI = test: Growth inhibition of human LOX IMVI cells at 10 uM incubated for 48 hrs by sulforhodamine B assay relative to control
OVCAR-4 = test: Growth inhibition of human OVCAR-4 cells at 10 uM incubated for 48 hrs by sulforhodamine B assay relative to control
PC-3 = test: Growth inhibition of human PC-3 cells at 10 uM incubated for 48 hrs by sulforhodamine B assay relative to control
SF-268 = test: Growth inhibition of human SF-268 cells at 10 uM incubated for 48 hrs by sulforhodamine B assay relative to control
M14 = test: Growth inhibition of human M14 cells at 10 uM incubated for 48 hrs by sulforhodamine B assay relative to control
RPMI-8226 = test: Growth inhibition of human RPMI-8226 cells at 10 uM incubated for 48 hrs by sulforhodamine B assay relative to control
KM12 = test: Growth inhibition of human KM12 cells at 10 uM incubated for 48 hrs by sulforhodamine B assay relative to control
NCI/ADR-RES = test: Growth inhibition of human NCI/ADR-RES cells at 10 uM incubated for 48 hrs by sulforhodamine B assay relative to control
NCI-H226 = test: Growth inhibition of human NCI-H226 cells at 10 uM incubated for 48 hrs by sulforhodamine B assay relative to control
HL-60(TB) = test: Growth inhibition of human HL-60(TB) cells at 10 uM incubated for 48 hrs by sulforhodamine B assay relative to control
ACHN = test: Growth inhibition of human ACHN cells at 10 uM incubated for 48 hrs by sulforhodamine B assay relative to control
SN12C = test: Growth inhibition of human SN12C cells at 10 uM incubated for 48 hrs by sulforhodamine B assay relative to control
UO-31 = test: Growth inhibition of human UO-31 cells at 10 uM incubated for 48 hrs by sulforhodamine B assay relative to control
UACC-257 = test: Growth inhibition of human UACC-257 cells at 10 uM incubated for 48 hrs by sulforhodamine B assay relative to control
HCC 2998 = test: Growth inhibition of human HCC 2998 cells at 10 uM incubated for 48 hrs by sulforhodamine B assay relative to control
SR = test: Growth inhibition of human SR cells at 10 uM incubated for 48 hrs by sulforhodamine B assay relative to control
U-251 = test: Growth inhibition of human U-251 cells at 10 uM incubated for 48 hrs by sulforhodamine B assay relative to control
DU-145 = test: Growth inhibition of human DU-145 cells at 10 uM incubated for 48 hrs by sulforhodamine B assay relative to control
SF-539 = test: Growth inhibition of human SF-539 cells at 10 uM incubated for 48 hrs by sulforhodamine B assay relative to control
HOP-92 = test: Growth inhibition of human HOP-92 cells at 10 uM incubated for 48 hrs by sulforhodamine B assay relative to control
MDA-MB-468 = test: Growth inhibition of human MDA-MB-468 cells at 10 uM incubated for 48 hrs by sulforhodamine B assay relative to control
MOLT-4 = test: Growth inhibition of human MOLT-4 cells at 10 uM incubated for 48 hrs by sulforhodamine B assay relative to control
MDA-MB-231 = test: Growth inhibition of human MDA-MB-231 cells at 10 uM incubated for 48 hrs by sulforhodamine B assay relative to control
CAKI-1 = test: Growth inhibition of human CAKI-1 cells at 10 uM incubated for 48 hrs by sulforhodamine B assay relative to control
OVCAR-5 = test: Growth inhibition of human OVCAR-5 cells at 10 uM incubated for 48 hrs by sulforhodamine B assay relative to control
SF-295 = test: Growth inhibition of human SF-295 cells at 10 uM incubated for 48 hrs by sulforhodamine B assay relative to control
NCI-H322M = test: Growth inhibition of human NCI-H322M cells at 10 uM incubated for 48 hrs by sulforhodamine B assay relative to control
NCI-H23 = test: Growth inhibition of human NCI-H23 cells at 10 uM incubated for 48 hrs by sulforhodamine B assay relative to control
Hs-578T = test: Growth inhibition of human Hs-578T cells at 10 uM incubated for 48 hrs by sulforhodamine B assay relative to control
HT-29 = test: Growth inhibition of human HT-29 cells at 10 uM incubated for 48 hrs by sulforhodamine B assay relative to control
OVCAR-8 = test: Growth inhibition of human OVCAR-8 cells at 10 uM incubated for 48 hrs by sulforhodamine B assay relative to control
NCI-H522 = test: Growth inhibition of human NCI-H522 cells at 10 uM incubated for 48 hrs by sulforhodamine B assay relative to control
MCF7 = test: Growth inhibition of human MCF7 cells at 10 uM incubated for 48 hrs by sulforhodamine B assay relative to control
SW-620 = test: Growth inhibition of human SW-620 cells at 10 uM incubated for 48 hrs by sulforhodamine B assay relative to control

O=C(CN1CCCCC1)Nc1ccc(-c2nc3ccccc3s2)cc1
inhibition of growth at 10 µM (Malme-3M): -9.17%
inhibition of growth at 10 µM (SNB-75): 1.53%
inhibition of growth at 10 µM (COLO 205): -5.35%
inhibition of growth at 10 µM (HCT-116): 5.5%
inhibition of growth at 10 µM (RXF 393): 13%
inhibition of growth at 10 µM (786-0): 13.9%
inhibition of growth at 10 µM (HOP-62): 7.87%
inhibition of growth at 10 µM (HCT-15): 28%
inhibition of growth at 10 µM (A549): 5.89%
inhibition of growth at 10 µM (OVCAR-3): -0.25%
inhibition of growth at 10 µM (LOX IMVI): 21%
inhibition of growth at 10 µM (OVCAR-4): 4.89%
inhibition of growth at 10 µM (PC-3): 15.5%
inhibition of growth at 10 µM (SF-268): 0.48%
inhibition of growth at 10 µM (M14): -5.76%
inhibition of growth at 10 µM (RPMI-8226): 11.3%
inhibition of growth at 10 µM (KM12): 3.6%
inhibition of growth at 10 µM (NCI/ADR-RES): 6.26%
inhibition of growth at 10 µM (NCI-H226): 11.3%
inhibition of growth at 10 µM (HL-60(TB)): 15.8%
inhibition of growth at 10 µM (ACHN): -5.42%
inhibition of growth at 10 µM (SN12C): 6.04%
inhibition of growth at 10 µM (UO-31): 6.94%
inhibition of growth at 10 µM (UACC-257): 2.05%
inhibition of growth at 10 µM (HCC 2998): 9.72%
inhibition of growth at 10 µM (SR): 56%
inhibition of growth at 10 µM (U-251): 22.8%
inhibition of growth at 10 µM (DU-145): 0.74%
inhibition of growth at 10 µM (SF-539): -0.41%
inhibition of growth at 10 µM (HOP-92): 44.5%
inhibition of growth at 10 µM (MDA-MB-468): 73.7%
inhibition of growth at 10 µM (MOLT-4): 14.3%
inhibition of growth at 10 µM (MDA-MB-231): 41.5%
inhibition of growth at 10 µM (CAKI-1): 9.3%
inhibition of growth at 10 µM (OVCAR-5): -4.63%
inhibition of growth at 10 µM (SF-295): 4.43%
inhibition of growth at 10 µM (NCI-H322M): -11.9%
inhibition of growth at 10 µM (NCI-H23): 20.8%
inhibition of growth at 10 µM (Hs-578T): 12.6%
inhibition of growth at 10 µM (HT-29): 42.2%
inhibition of growth at 10 µM (OVCAR-8): -3.73%
inhibition of growth at 10 µM (NCI-H522): -4.5%
inhibition of growth at 10 µM (MCF7): 75.1%
inhibition of growth at 10 µM (SW-620): -9.04%

Cc1cc(C)n(CC(=O)Nc2ccc(-c3nc4ccccc4s3)cc2)n1
inhibition of growth at 10 µM (Malme-3M): -7.85%
inhibition of growth at 10 µM (SNB-75): -0.57%
inhibition of growth at 10 µM (COLO 205): -12.4%
inhibition of growth at 10 µM (HCT-116): -7.45%
inhibition of growth at 10 µM (RXF 393): -29%
inhibition of growth at 10 µM (786-0): -5.8%
inhibition of growth at 10 µM (HOP-62): -5.06%
inhibition of growth at 10 µM (HCT-15): -5.24%
inhibition of growth at 10 µM (A549): 5.29%
inhibition of growth at 10 µM (OVCAR-3): -1.21%
inhibition of growth at 10 µM (LOX IMVI): 2.33%
inhibition of growth at 10 µM (OVCAR-4): 2.19%
inhibition of growth at 10 µM (PC-3): 13.2%
inhibition of growth at 10 µM (SF-268): -0.26%
inhibition of growth at 10 µM (M14): -11.3%
inhibition of growth at 10 µM (RPMI-8226): 2.85%
inhibition of growth at 10 µM (KM12): -0.27%
inhibition of growth at 10 µM (NCI/ADR-RES): -2.56%
inhibition of growth at 10 µM (NCI-H226): -0.25%
inhibition of growth at 10 µM (HL-60(TB)): -2.97%
inhibition of growth at 10 µM (ACHN): -14.4%
inhibition of growth at 10 µM (SN12C): -2.13%
inhibition of growth at 10 µM (UO-31): 16.2%
inhibition of growth at 10 µM (UACC-257): -7.21%
inhibition of growth at 10 µM (HCC 2998): 7.15%
inhibition of growth at 10 µM (SR): 0.6%
inhibition of growth at 10 µM (U-251): 10.3%
inhibition of growth at 10 µM (DU-145): -2.89%
inhibition of growth at 10 µM (SF-539): 1.4%
inhibition of growth at 10 µM (HOP-92): 2.31%
inhibition of growth at 10 µM (MDA-MB-468): 103%
inhibition of growth at 10 µM (MOLT-4): 16%
inhibition of growth at 10 µM (MDA-MB-231): -7.87%
inhibition of growth at 10 µM (CAKI-1): -1.54%
inhibition of growth at 10 µM (OVCAR-5): -4.65%
inhibition of growth at 10 µM (SF-295): -3.17%
inhibition of growth at 10 µM (NCI-H322M): 0.12%
inhibition of growth at 10 µM (NCI-H23): 6.19%
inhibition of growth at 10 µM (Hs-578T): -13.4%
inhibition of growth at 10 µM (HT-29): -8.3%
inhibition of growth at 10 µM (OVCAR-8): 0.31%
inhibition of growth at 10 µM (NCI-H522): -2.77%
inhibition of growth at 10 µM (MCF7): 73.4%
inhibition of growth at 10 µM (SW-620): -13.1%
